# Measured values: PubChem BioAssay AID248 (DTP/NCI, 2004)
# “And” between values parts separate entries of the source, which are not always exact repeats. Equal values may be shown once. Inconclusive results and toxic doses are left out.
# System: L1210 leukemia ip in BDF1 mice, survival T/C
# Assay: NCI In Vivo Anticancer Drug Screen. Data for tumor model L1210 Leukemia (intraperitoneal) in B6D2F1 (BDF1) mice
# Conditions: endpoint: mean survival time, higher = longer survival
# Summary of the method: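 Value reflects the ratio of survival in compound-treated mice to survival in vehicle-treated controls, with both groups carrying the same transplanted tumor.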
# [1] = dose: 100.0 mg/kg/injection, schedule: Q04DX003 (ip), vehicle: saline with Tween-80
# [2] = dose: 200.0 mg/kg/injection, schedule: Q04DX003 (ip), vehicle: saline with Tween-80
# [3] = dose: 400.0 mg/kg/injection, schedule: Q04DX003 (ip), vehicle: saline with Tween-80
# [4] = dose: 10.0 mg/kg/injection, schedule: Q01DX009 (ip), vehicle: saline
# [5] = dose: 100.0 mg/kg/injection, schedule: Q04DX003 (ip), vehicle: saline
# [6] = dose: 12.5 mg/kg/injection, schedule: Q01DX009 (ip), vehicle: saline
# [7] = dose: 25.0 mg/kg/injection, schedule: Q01DX009 (ip), vehicle: saline
# [8] = dose: 50.0 mg/kg/injection, schedule: Q01DX009 (ip), vehicle: saline
# [9] = dose: 75.0 mg/kg/injection, schedule: Q01DX001 (ip), vehicle: saline
# [10] = dose: 150.0 mg/kg/injection, schedule: Q01DX001 (ip), vehicle: saline
# [11] = dose: 100.0 mg/kg/injection, schedule: Q04DX002 (ip), vehicle: saline
# [12] = dose: 200.0 mg/kg/injection, schedule: Q04DX002 (ip), vehicle: saline
# [13] = dose: 400.0 mg/kg/injection, schedule: Q04DX002 (ip), vehicle: saline
# [14] = dose: 100.0 mg/kg/injection, schedule: Q01DX001 (ip), vehicle: saline
# [15] = dose: 200.0 mg/kg/injection, schedule: Q01DX001 (ip), vehicle: saline
# [16] = dose: 400.0 mg/kg/injection, schedule: Q01DX001 (ip), vehicle: saline
compound,measurement,setting,value
CC1CC(NC(=O)N(CCCl)N=O)CC(C)(C)C1 (stereo not drawn),T/C,"dose: 8.0 mg/kg/injection, schedule: Q01DX001 (ip), vehicle: other",96 % of control
same,T/C,"dose: 16.0 mg/kg/injection, schedule: Q01DX001 (ip), vehicle: other",94 % of control
same,T/C,"dose: 31.0 mg/kg/injection, schedule: Q01DX001 (ip), vehicle: other",105 % of control
same,T/C,"dose: 62.0 mg/kg/injection, schedule: Q01DX001 (ip), vehicle: other",120 % of control
same,T/C,"dose: 250.0 mg/kg/injection, schedule: Q01DX001 (ip), vehicle: other",157 % of control
same,T/C,"dose: 375.0 mg/kg/injection, schedule: Q01DX001 (ip), vehicle: other",292 % of control
same,T/C,"dose: 500.0 mg/kg/injection, schedule: Q01DX001 (ip), vehicle: other",308 % of control
same,T/C,"dose: 750.0 mg/kg/injection, schedule: Q01DX001 (ip), vehicle: other",333 % of control
Cc1ccc(C(=O)O)cc1S(=O)(=O)Cl,T/C,"dose: 50.0 mg/kg/injection, schedule: Q01DX009 (ip), vehicle: saline with Tween-80",113 % of control
same,T/C,"dose: 100.0 mg/kg/injection, schedule: Q01DX009 (ip), vehicle: saline with Tween-80",98 % of control
same,T/C,[1],102 % of control
same,T/C,"dose: 200.0 mg/kg/injection, schedule: Q01DX009 (ip), vehicle: saline with Tween-80",95 % of control
same,T/C,[2],87 % of control
same,T/C,[3],92 % of control
O=C(CCCO)NCCS(=O)c1ccccc1 (stereo not drawn),T/C,"dose: 100.0 mg/kg/injection, schedule: Q04DX002 (ip), vehicle: saline with Tween-80",107 % of control
same,T/C,"dose: 200.0 mg/kg/injection, schedule: Q04DX002 (ip), vehicle: saline with Tween-80",101 % of control
same,T/C,"dose: 400.0 mg/kg/injection, schedule: Q04DX002 (ip), vehicle: saline with Tween-80",111 % of control
Cc1cccnc1C,T/C,[4],105 % of control
same,T/C,"dose: 20.0 mg/kg/injection, schedule: Q01DX009 (ip), vehicle: saline",111 % of control
same,T/C,"dose: 30.0 mg/kg/injection, schedule: Q01DX009 (ip), vehicle: saline",115 % of control
same,T/C,"dose: 40.0 mg/kg/injection, schedule: Q04DX003 (ip), vehicle: saline",112 % of control
same,T/C,"dose: 80.0 mg/kg/injection, schedule: Q04DX003 (ip), vehicle: saline",107 % of control
same,T/C,[5],100 % of control
O=c1[nH]c(-c2ccccc2)c(Br)c(=O)[nH]1,T/C,[1],97 % of control
same,T/C,[2],107 % of control
same,T/C,[3],100 % of control
Cc1[nH]nc(C(N)=O)c1N=NN(C)C,T/C,[6],108 % of control
same,T/C,"dose: 25.0 mg/kg/injection, schedule: Q01DX001 (ip), vehicle: saline",121 % of control
same,T/C,[7],124 % of control
same,T/C,[8],183 % of control
same,T/C,[9],112 % of control and 124 % of control
same,T/C,"dose: 75.0 mg/kg/injection, schedule: Q01DX009 (ip), vehicle: saline",204 % of control
same,T/C,[10],104 % of control and 216 % of control
same,T/C,"dose: 150.0 mg/kg/injection, schedule: Q01DX009 (ip), vehicle: saline",186 % of control
CC(=O)OC1CCSCC1,T/C,[1],101 % of control
same,T/C,[2],93 % of control
same,T/C,[3],103 % of control
CN(C1CCCCC1)C1CCCCC1,T/C,"dose: 6.25 mg/kg/injection, schedule: Q01DX009 (ip), vehicle: Klucel (hydroxypropylcellulose) (HPC)",100 % of control
same,T/C,"dose: 12.5 mg/kg/injection, schedule: Q01DX009 (ip), vehicle: Klucel (hydroxypropylcellulose) (HPC)",91 % of control
same,T/C,"dose: 25.0 mg/kg/injection, schedule: Q01DX009 (ip), vehicle: Klucel (hydroxypropylcellulose) (HPC)",96 % of control and 107 % of control
same,T/C,"dose: 25.0 mg/kg/injection, schedule: Q04DX003 (ip), vehicle: Klucel (hydroxypropylcellulose) (HPC)",97 % of control
same,T/C,"dose: 50.0 mg/kg/injection, schedule: Q04DX003 (ip), vehicle: Klucel (hydroxypropylcellulose) (HPC)",102 % of control
same,T/C,[9],108 % of control
same,T/C,"dose: 100.0 mg/kg/injection, schedule: Q04DX003 (ip), vehicle: Klucel (hydroxypropylcellulose) (HPC)",97 % of control
same,T/C,[10],109 % of control
CN(C)S(=O)(=O)Oc1ccc(S(=O)(=O)F)cc1Cl,T/C,[11],112 % of control
same,T/C,[12],104 % of control
same,T/C,[13],112 % of control
CCN(CC)C(=O)C1CN2CCc3cc(OC)c(OC)cc3C2CC1O (stereo not drawn),T/C,[7],97 % of control
same,T/C,"dose: 25.0 mg/kg/injection, schedule: Q04DX003 (ip), vehicle: saline",108 % of control
same,T/C,[8],105 % of control
same,T/C,"dose: 50.0 mg/kg/injection, schedule: Q04DX003 (ip), vehicle: saline",105 % of control
same,T/C,"dose: 100.0 mg/kg/injection, schedule: Q01DX009 (ip), vehicle: saline",103 % of control
same,T/C,[5],97 % of control
same,T/C,"dose: 200.0 mg/kg/injection, schedule: Q01DX009 (ip), vehicle: saline",118 % of control
same,T/C,"dose: 200.0 mg/kg/injection, schedule: Q04DX003 (ip), vehicle: saline",110 % of control
same,T/C,"dose: 400.0 mg/kg/injection, schedule: Q01DX009 (ip), vehicle: saline",115 % of control
same,T/C,"dose: 400.0 mg/kg/injection, schedule: Q04DX003 (ip), vehicle: saline",105 % of control
CC(=O)Nc1ccc(S(=O)(=O)CO)cc1,T/C,"dose: 100.0 mg/kg/injection, schedule: Q01DX001 (ip), vehicle: Klucel (hydroxypropylcellulose) (HPC)",102 % of control
same,T/C,"dose: 200.0 mg/kg/injection, schedule: Q01DX001 (ip), vehicle: Klucel (hydroxypropylcellulose) (HPC)",102 % of control
same,T/C,"dose: 400.0 mg/kg/injection, schedule: Q01DX001 (ip), vehicle: Klucel (hydroxypropylcellulose) (HPC)",102 % of control
CCOC(=O)C(C)(C(=O)OCC)c1cc(OC)c(C)cc1Br,T/C,"dose: 50.0 mg/kg/injection, schedule: Q04DX003 (ip), vehicle: saline with Tween-80",100 % of control
same,T/C,[1],103 % of control
same,T/C,[2],100 % of control
same,T/C,[3],97 % of control
CCS(=O)(=O)Nc1ccc(Nc2c3ccccc3nc3ccccc23)c(OC)c1,T/C,"dose: 2.5 mg/kg/injection, schedule: Q01DX009 (ip), vehicle: Klucel (hydroxypropylcellulose) (HPC)",152 % of control
same,T/C,"dose: 5.0 mg/kg/injection, schedule: Q01DX009 (ip), vehicle: Klucel (hydroxypropylcellulose) (HPC)",168 % of control
same,T/C,"dose: 5.0 mg/kg/injection, schedule: Q01DX009 (ip), vehicle: saline",155 % of control
same,T/C,"dose: 10.0 mg/kg/injection, schedule: Q01DX009 (ip), vehicle: Klucel (hydroxypropylcellulose) (HPC)",163 % of control
same,T/C,[4],216 % of control
same,T/C,"dose: 20.0 mg/kg/injection, schedule: Q01DX009 (ip), vehicle: Klucel (hydroxypropylcellulose) (HPC)",86 % of control
Cn1cnc([N+](=O)[O-])c1[Se]c1ncnc2c1ccn2C1OC(CO)C(O)C1O (stereo not drawn),T/C,"dose: 6.25 mg/kg/injection, schedule: Q01DX009 (ip), vehicle: saline",102 % of control
same,T/C,[6],105 % of control
same,T/C,[7],97 % of control
CCSCC1OC(n2cnc3c(N)nc(Cl)nc32)C(O)C1O (stereo not drawn),T/C,"dose: 12.5 mg/kg/injection, schedule: Q01DX001 (ip), vehicle: saline with Tween-80",100 % of control
same,T/C,"dose: 25.0 mg/kg/injection, schedule: Q01DX001 (ip), vehicle: saline with Tween-80",100 % of control
same,T/C,"dose: 50.0 mg/kg/injection, schedule: Q01DX001 (ip), vehicle: saline with Tween-80",102 % of control
NNc1nc(Nc2ccccc2)nc(Nc2ccccc2)n1,T/C,[14],89 % of control
same,T/C,[15],95 % of control
same,T/C,[16],96 % of control
O=Cc1cc(O)c(O)c(O)c1,T/C,"dose: 50.0 mg/kg/injection, schedule: Q01DX001 (ip), vehicle: other",103 % of control
same,T/C,"dose: 100.0 mg/kg/injection, schedule: Q01DX001 (ip), vehicle: other",101 % of control
same,T/C,"dose: 200.0 mg/kg/injection, schedule: Q01DX001 (ip), vehicle: other",101 % of control
same,T/C,"dose: 400.0 mg/kg/injection, schedule: Q01DX001 (ip), vehicle: other",104 % of control
COc1ccc(C(=S)N2CCN(c3ccccc3Cl)CC2)cc1,T/C,[14],101 % of control
same,T/C,[15],91 % of control
same,T/C,[16],90 % of control
O=C(NCCO)Nc1ccccc1Cl,T/C,[11],103 % of control
same,T/C,[12],100 % of control
same,T/C,[13],100 % of control
CN(C)C(c1ccccc1)C(O)c1ccccc1 (stereo not drawn),T/C,[9],94 % of control and 98 % of control
same,T/C,[10],97 % of control and 102 % of control
same,T/C,"dose: 300.0 mg/kg/injection, schedule: Q01DX001 (ip), vehicle: saline",89 % of control and 96 % of control
